# US4355024A, “Method and feed for stimulating the growth of animals” (priority 1979, dated 1982)
# Values joined by “and” are separate entries in the source; they are usually repeats but may differ in a detail not shown here. Equal entries are not always repeated. Peptide text beside a SMILES is read from it.
# Experiment: Growth stimulation in rats fed chow containing the additive (body weight over 15 days)
# Type: in vivo, Wistar strain rats
# Details: 0.25% wt/wt in feed; for Mean Body Weight, experimental animals: 10 male Wistar rats; for Body Weight of Animals (individual experimental animals): male Wistar rats
# Protocol: Two groups of 10 Wistar strain rats each, all males to avoid estrus cyclical changes in the 15-day experimental period, were kept in two separate stock cages in an animal room maintained at 25° C. with an automatic 12-hour light-12-hour-dark cycle. Dry standard laboratory chow pellets were made up into a wet mash by adding a 1:1 mixture of water (wt/wt), which then was compressed by hand into balls weighing approximately 20 grams each. To each 20 g ball made for the experimental group, 50 mg of the methyl ester of L-aspartyl-L-phenylalanine was added, which represents a 0.25% wt/wt admixture. More than adequate food was made freely available to the animals at all times and drinking water was made available ad libitum. All individual rats were numbered by a colored stripe system marked on the tail. The animals were weighed on a balance to an accuracy of 1 gram at the start of the experiment (3 days after arrival in the cages to allow them to adjust to their new environment). They were then weighed again after 2, 4, 6, 8, 10, 12 and 14 days from the start of the new diet (i.e., days 3, 5, 7, 9, 11, 13 and 15 of the experiment). The rates of growth of the control and experimental animals is summarized in tabular form below: […]
# [1] = Day 1 (start of diet, baseline)
compound,measurement,setting,value
COC(=O)[C@H](Cc1ccccc1)NC(=O)[C@@H](N)CC(=O)O [methyl ester of L-aspartyl-L-phenylalanine] (H-Asp-Phe-OMe),"Mean Body Weight, experimental animals",[1],102.6 grams
same,"Mean Body Weight, experimental animals",Day 3,117.8 grams
same,"Mean Body Weight, experimental animals",Day 5,133.4 grams
same,"Mean Body Weight, experimental animals",Day 7,149.8 grams
same,"Mean Body Weight, experimental animals",Day 9,166.8 grams
same,"Mean Body Weight, experimental animals",Day 11,183.1 grams
same,"Mean Body Weight, experimental animals",Day 13,199.9 grams
same,"Mean Body Weight, experimental animals",Day 15,215.9 grams
same,Body Weight of Animals (individual experimental animals),[1],94 grams and 105 grams and 96 grams and 110 grams and 102 grams and 98 grams and 104 grams and 95 grams and 114 grams and 108 grams
same,Body Weight of Animals (individual experimental animals),Day 3,112 grams and 119 grams and 110 grams and 128 grams and 120 grams and 109 grams and 129 grams
same,Body Weight of Animals (individual experimental animals),Day 5,130 grams and 135 grams and 126 grams and 145 grams and 134 grams and 127 grams and 124 grams
same,Body Weight of Animals (individual experimental animals),Day 7,148 grams and 153 grams and 143 grams and 161 grams and 150 grams and 149 grams and 140 grams and 162 grams
same,Body Weight of Animals (individual experimental animals),Day 9,169 grams and 160 grams and 161 grams and 178 grams and 166 grams and 158 grams and 165 grams and 155 grams and 180 grams
same,Body Weight of Animals (individual experimental animals),Day 11,184 grams and 188 grams and 180 grams and 193 grams and 183 grams and 172 grams and 181 grams and 169 grams and 197 grams
same,Body Weight of Animals (individual experimental animals),Day 13,203 grams and 204 grams and 195 grams and 209 grams and 202 grams and 186 grams and 200 grams and 184 grams and 213 grams
same,Body Weight of Animals (individual experimental animals),Day 15,220 grams and 223 grams and 211 grams and 226 grams and 217 grams and 201 grams and 215 grams and 198 grams and 227 grams and 221 grams
same,mean body weight of the experimental group higher than the mean body weight of the control group,"rats, after 2 weeks",about 34%
same,increase in body weight versus control (in words),"rats, beginning with the seventh day of the experiment",significant increases in body weight
